Assay results from ChEMBL document CHEMBL3044628, “Okaramine C, a New Insecticidal Indole Alkaloid from Penicillium simplicissimum” (1991).

System: Bombyx mori
Experiment: Insecticidal activity against po dosed larvae of Bombyx mori assessed per gram of diet
Type: functional

Compound | LD50
C=CC(C)(C)N1c2ccccc2[C@]2(O)C[C@@H]3C(=O)N4/C=C\C(C)(C)c5[nH]c6ccccc6c5/C=C\4C(=O)N3[C@H]12 [OKARAMINE A] | 8 mg/kg
CO[C@@H]1[C@]2(O)C(=O)N3/C=C\C(C)(C)c4[nH]c5ccccc5c4/C=C\3C(=O)N2[C@]23[C@H](C)C(C)(C)N2c2ccccc2[C@]13O [OKARAMINE B] | 0.2 mg/kg
C=CC(C)(C)c1[nH]c2ccccc2c1CC1NC(=O)[C@H]2C[C@@]3(O)c4ccccc4N(C(C)(C)C=C)[C@H]3N2C1=O (stereo partly drawn) [OKARAMINE C] | 7 mg/kg
